Assay results as given in PubChem BioAssay AID686998 (Broad Institute, 2013).
Where “and” joins values, the source holds several entries; their conditions need not be identical. Equal values may be shown once. Records with an inconclusive call do not appear. Calls of active or inactive are those of the source.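 The calls were made as follows: active = falling signal with fitted half-maximal potency no higher than twice the top valid tested dose; inconclusive = poor fit quality, or flat fit spanning -70% to -30%; inactive = potency over limit, rising signal, or flat fit inside 30%.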

What follows are compounds tested on Cryptococcus neoformans growth, Alamar Blue, 24 h (assay: Cryptococcus neoformans growth inhibition, dose response, Alamar Blue, cherry-picks (AID 686998)).

| SMILES | IC50 |
| --- | --- |
| COC(=O)C1=C(C)N(Cc2ccc(F)cc2)C(=S)NC1c1ccc(Cl)cc1 (centres undefined) | 11.4 µM |
| C[C@H](CO)N1C[C@H](C)[C@H](CN(C)S(=O)(=O)c2cn(C)cn2)Oc2ncc(/C=C/c3ccccc3)cc2C1=O | 60.1 µM |
| CC(=O)N[C@H]1CC[C@@H](CCNC(=O)C2CCC2)O[C@H]1CO | 50.2 µM |
| Cc1ccc(OCCn2c(=S)[nH]c3ccccc32)c(C(C)C)c1 | 0.913 µM |
| Cc1cc(C)c(NC(=O)CN(C2CCCCC2)C2CCCCC2)c(C)c1 | 32.9 µM |
| Cc1ccc2c(C)c(C(=O)N3CCN(Cc4ccccn4)CC3)oc2c1C | 67.4 µM |
| COC(=O)C1=C(C)N(Cc2ccccc2)C(=S)N[C@H]1c1ccc(Br)cc1 | 4.51 µM |
| COC(=O)C1=C(C)N(Cc2ccc(F)cc2)C(=S)NC1c1ccc(F)cc1 (centres undefined) | 22.7 µM |
| CC(NC(=O)COc1ccccc1Cl)c1ccccc1 (centres undefined) | 0.88 µM |
| O=C(COc1ccc2c(c1)CCC2)NCc1ccc(Cl)cc1 | 34.2 µM |
| CC=Cc1ccc2n(c1=O)C[C@@H]1[C@@H](CO)[C@H](C(=O)NCc3ccc4c(c3)OCO4)[C@H]2N1C(=O)C1CC1 (mixture of isomers) | 23.3 µM |
| O=C(CSc1ncnc2c1cnn2-c1cccc(Cl)c1)NCC1CCCO1 (centres undefined) | 39.1 µM |
| Cc1ccc(S(=O)(=O)N2CC[C@@H]3[C@H](CO)Nc4ccc(-c5ccccc5F)cc4[C@@H]32)cc1 | 0.997 µM |
| COc1cccc(C(=O)NC(=S)Nc2ccccc2N2CCOCC2)c1 | 21.2 µM |
| C[C@@H]1CCCCO[C@@H](CN(C)C(=O)NC2CCCCC2)[C@H](C)CN([C@@H](C)CO)C(=O)c2cc(NS(=O)(=O)c3cn(C)cn3)ccc2O1 | 44.3 µM |
| O=C(c1cccnc1)N1C[C@H]2[C@@H](c3ccccc31)[C@@H](CO)N2C(=O)Nc1ccc(F)cc1 | 6.72 µM |
| Cc1noc(C)c1NC(=O)N(C)C[C@H]1Oc2ccc(NC(=O)C3CC3)cc2CC(=O)N([C@@H](C)CO)C[C@H]1C | > 70 µM (inactive) |
| Cc1c(Cl)cccc1NC(=S)NCCc1ccc(Cl)cc1 | 5.38 µM |
| CNC[C@@H]1Oc2c(NS(=O)(=O)c3ccc(Cl)cc3)cccc2C(=O)N([C@H](C)CO)C[C@H]1C | > 70 µM (inactive) |
| O=C(C1CCOCC1)N1CC[C@@H]2[C@@H](CO)Nc3ccc(Br)cc3[C@@H]21 | > 70 µM (inactive) |
| Cc1ccccc1NC(=S)NC(=O)CCc1ccccc1 | 5.62 µM |
| Fc1ccc(CNC(=S)NCc2cccc(Cl)c2)cc1 | 12.3 µM |
| C[C@@H]1CN([C@H](C)CO)C(=O)CCCn2nncc2CO[C@H]1CN(C)Cc1cccc(C(F)(F)F)c1 | 4.17 µM |
| Cc1ccc2nc(C)c3c(c2c1)OC(C(C)(Cl)Br)C3 (centres undefined) | 19 µM |

| SMILES | IC50 |
| --- | --- |
| CCC(=O)Nc1ccc2c(c1)OC[C@H](C)N(C(=O)c1ccc(F)cc1)C[C@@H](C)[C@@H](OC)CN(C)C2=O | 48.2 µM |
| CNC[C@H]1Oc2ncc(C#CCC(C)C)cc2C(=O)N([C@H](C)CO)C[C@H]1C | > 70 µM (inactive) |
| COC(=O)C1=C(C)N(CC(C)C)C(=S)NC1c1ccc(F)cc1 (centres undefined) | 20.3 µM |
| Cc1ccc(NC(=S)NCc2ccc(Cl)cc2)c(OC(F)F)c1 | 10.2 µM |
| CCCC(=O)N1CCC1(C)C(=O)Nc1cc(C)ccc1C (centres undefined) | > 70 µM (inactive) |
| O=C(Nc1ccc(N2CCOCC2)cc1N1CCOCC1)c1cccc([N+](=O)[O-])c1 | 67 µM |
| CC(C)COc1ccc(CNC(=S)NCc2ccccc2)cc1 | 5.43 µM |
| COc1ccc(N2CCN(C(=O)CSc3ncnc4c3cnn4-c3ccccc3C)CC2)cc1 | 53.8 µM |
| CCCNC(=O)[C@H]1[C@H](CO)[C@H]2Cn3c(cccc3=O)[C@@H]1N2C(=O)Nc1cc(F)ccc1F | 68.5 µM |
| CCOC(=O)CNC(=O)CSc1ncnc2c1cnn2-c1ccc(Cl)cc1 | 67.1 µM |
| COc1ccc(NC(=S)NCc2ccccc2Cl)c(OC)c1 | 43.4 µM |
| C[C@@H]1CN([C@H](C)CO)C(=O)c2cccc(NC(=O)c3ccncc3)c2O[C@H]1CN(C)C(=O)Nc1ccc(C(F)(F)F)cc1 | 67.4 µM |
| O=C(CN1CCOCC1)N[C@@H]1CC[C@@H](CCNC(=O)C2CCC2)O[C@@H]1CO | 43.7 µM |
| CC(C)NC(=O)Nc1ccc2c(c1)CC(=O)N([C@H](C)CO)C[C@H](C)[C@@H](CN(C)C(=O)Nc1ccc3c(c1)OCO3)O2 | > 70 µM (inactive) |
| COc1cc2c(C(=O)N(C)c3cc(Cl)ccc3OC)cn(C)c(=O)c2cc1OC | 0.383 µM |
| CNC[C@@H]1Oc2ccc(NS(=O)(=O)c3ccc(Cl)cc3)cc2C(=O)N([C@H](C)CO)C[C@H]1C | 46.4 µM |
| COC(=O)C1=C(C)N(Cc2ccc(F)cc2)C(=S)NC1c1cccc(F)c1 (centres undefined) | 22.1 µM |
| Cc1cc(C)c(NC(=O)CN2CCCCCC2)c(C)c1 | 0.858 µM |
| COc1cccc(NC(=S)NC(=O)Cc2ccc(Cl)cc2)c1 | 5.24 µM |
| CCCn1c(=S)[nH]c2cc(Cl)ccc21 | 22.9 µM |
| O=C(COc1ccccc1)NCc1ccccc1 | 2.84 µM |
| C[C@H]1CN([C@@H](C)CO)C(=O)CCCn2cc(nn2)CO[C@@H]1CN(C)Cc1ccc(C(F)(F)F)cc1 | 30.7 µM |
| CCNC(=O)C[C@H]1CC[C@@H](NC(=O)NC2CCCCC2)[C@H](CO)O1 | 53.1 µM |
| C[C@H]1CN([C@@H](C)CO)C(=O)c2cc(-c3ccccc3)cnc2O[C@@H]1CN(C)C(=O)c1ccccn1 | 42.3 µM |

| SMILES | IC50 |
| --- | --- |
| O=C(C[C@H]1CC[C@@H]2[C@H](COC[C@H](O)CN2CC2CCOCC2)O1)NCc1ccc(Cl)cc1 | 70 µM |
| C/C=C/c1ccc([C@@H]2[C@H]3CN(C(=O)Nc4ccc(OC)cc4)CCCCN3[C@H]2CO)cc1 | > 70 µM (inactive) |
| COC(=O)C1=C(C)N(Cc2ccccc2)C(=S)NC1c1ccc(Br)cc1 (centres undefined) | 10.2 µM |
| CO[C@@H]1CN(C)C(=O)c2ccc(NC(C)=O)cc2OC[C@@H](C)N(C(=O)Cc2cccnc2)C[C@H]1C | > 60 µM (inactive) |
| COc1ccc(CNC(=S)NCc2ccc(OC(C)C)cc2)cc1 | 30.4 µM |
| O=C1CCC(C(=O)Nc2ccc([N+](=O)[O-])cc2)N1 (centres undefined) | 10.1 µM |
| COc1ccc(C(=O)NC(=S)Nc2ccccc2N2CCOCC2)cc1[N+](=O)[O-] | 26.1 µM |
| CC12CC3CC(C)(C1)CC(C(=O)NC(=S)N1CCCCC1)(C3)C2 | 15.5 µM |
| Cc1cccc(C)c1NC(=O)C1(C)CCC(=O)N1CCCn1ccnc1 (centres undefined) | < 0.26 µM |
| CCc1ccc(C(=O)NC(=S)Nc2ccccc2N2CCOCC2)cc1 | 9.06 µM |
| CC(C)NC(=O)Nc1ccc2c(c1)C(=O)N([C@H](C)CO)C[C@H](C)[C@H](CN(C)Cc1ccncc1)OCCCC[C@H](C)O2 | 54.6 µM |
| Cc1cc(C(=O)Nc2cccc3c2O[C@@H](CN(C)S(=O)(=O)c2ccccc2)[C@@H](C)CN([C@@H](C)CO)C3=O)n(C)n1 | 61.2 µM |
| Cc1noc(C)c1NC(=O)N(C)C[C@@H]1Oc2ccc(NC(=O)NC(C)C)cc2CC(=O)N([C@@H](C)CO)C[C@@H]1C | > 70 µM (inactive) |
| O=C(c1cccc(F)c1)N1C[C@H]2[C@@H](c3ccccc31)[C@@H](CO)N2Cc1cocn1 | > 70 µM (inactive) |
| C[C@H](NC(=O)C[C@H]1CC[C@@H](NC(=O)Cc2ccccn2)[C@@H](CO)O1)c1ccccc1 | 47.2 µM |
| CC(C)NC(=O)N(C)C[C@@H]1Oc2c(NC(=O)C3CCCCC3)cccc2C(=O)N([C@@H](C)CO)C[C@@H]1C | 8.12 µM |
| C[C@H]1CN([C@@H](C)CO)C(=O)Cc2cc(NC(=O)C3CC3)ccc2O[C@@H]1CN(C)C(=O)Nc1cccc2ccccc12 | 53.6 µM |
| CC(NC(=O)COc1ccccc1-c1ccccc1)c1ccccc1 (centres undefined) | 2.53 µM |
| S=C(Nc1cccc(Cl)c1)Nc1ccccc1Oc1ccccc1 | 13.2 µM |
| CO[C@H]1CN(C)C(=O)c2ccc(NC(=O)NC(C)C)cc2OC[C@@H](C)NC[C@H]1C | 1.08 µM |
| CC(=O)N1[C@H](CO)[C@H](c2ccc(-c3ccccc3)cc2)[C@@H]1CNC(=O)C1CC1 | 4.92 µM |
| COC(=O)C1=C(C)N(Cc2ccc(F)cc2)C(=S)NC1c1cccc(OC)c1 (centres undefined) | 31 µM |
| COC(=O)C1=C(C)N(Cc2ccc(Br)cc2)C(=S)NC1c1cccc(Cl)c1 (centres undefined) | 5.98 µM |
| CCOc1ccc(C(=O)NC(=S)Nc2ccccc2N2CCCCC2)cc1[N+](=O)[O-] | 3.11 µM |

| SMILES | IC50 |
| --- | --- |
| C[C@H](CO)N1C[C@H](C)[C@@H](CN(C)C(=O)Nc2ccc3c(c2)OCO3)Oc2ccc(NS(=O)(=O)c3cccs3)cc2C1=O | 64.4 µM |
| COc1ccccc1/C=N/NC(=S)NCc1ccco1 | 12.8 µM |
| COC(=O)C1=C(C)N(Cc2ccc(F)cc2)C(=S)NC1c1ccccc1 (centres undefined) | 29.4 µM |
| O=C(CCN1CCCCC1)NCC[C@@H]1CC[C@H](NC(=O)c2ccc(F)cc2)[C@@H](CO)O1 | > 70 µM (inactive) |
| CC(C)c1ccc(OCC(=O)NC(C)c2ccccc2)cc1 (centres undefined) | 49.5 µM |
| COC(=O)C1=C(C)N(CC(C)C)C(=S)NC1c1cccc(F)c1 (centres undefined) | 23.8 µM and 46.8 µM |
| C[C@@H]1CN([C@@H](C)CO)C(=O)c2cc(-c3cncnc3)cnc2O[C@H]1CN(C)C(=O)CN1CCOCC1 | 42.4 µM |
| COc1cccc(CNC(=O)COc2ccc(C(=O)c3ccccc3)cc2)c1 | 21 µM |
| COC(=O)C1=C(C)N(Cc2ccc(Cl)cc2)C(=S)NC1c1cccc(Cl)c1 (centres undefined) | 15.1 µM |
| CC(C)CC#Cc1cnc2c(c1)C(=O)N([C@@H](C)CO)C[C@@H](C)[C@@H](CN(C)C(=O)c1cccc(F)c1)O2 | 45.8 µM |
| O=C(C[C@H]1CC[C@H]2[C@@H](COC[C@H](O)CN2C(=O)Nc2ccc3c(c2)OCO3)O1)N1CCN(c2ccccc2)CC1 | > 70 µM (inactive) |
| CO[C@@H]1CN(C)C(=O)c2ccc(NS(=O)(=O)c3ccc(Oc4ccccc4)cc3)cc2OC[C@H](C)NC[C@H]1C | 3.78 µM |
| Cc1cccc(NC(=S)NN(Cc2ccccc2)c2ccccc2)c1C | 11.9 µM |
| C[C@H](CO)N1C[C@H](C)[C@H](CN(C)Cc2ccccc2F)Oc2cc(C3=CCCC3)ccc2S1(=O)=O | 36.3 µM |
| CCCCN1C(=S)NC[C@@H]1Cc1ccccc1 | 20.9 µM |
| CN1c2ccc(Br)cc2[C@@H]2[C@@H](CCN2C(=O)Cc2cccnc2)[C@@H]1CO | 2.15 µM |
| Fc1ccccc1NC(=S)NCCc1cccc(Cl)c1 | 16 µM |
| CCN1C(=S)N[C@@H](c2cccc(F)c2)C(C(=O)OC)=C1C | > 70 µM (inactive) |
| CO[C@@H]1CN(C)C(=O)c2cc(NC(=O)C3CCOCC3)ccc2OC[C@H](C)NC[C@@H]1C | 67.4 µM |
| Cc1cc(Cl)ccc1NC(=S)NCc1ccc(F)cc1 | 15.5 µM |
| COc1ccc(CN(C)C[C@H]2Oc3ccc(NS(C)(=O)=O)cc3CC(=O)N([C@@H](C)CO)C[C@H]2C)cc1 | 39.9 µM |
| COC(=O)C1=C(C)N(Cc2ccc(Cl)cc2)C(=S)NC1c1ccccc1 (centres undefined) | 10.8 µM |
